Test results as given in PMC10287695, “Non-covalent inhibitors of thioredoxin glutathione reductase with schistosomicidal activity in vivo” (Nature Communications, 2023).
Values joined by “and” are separate entries in the source; they are usually repeats but may differ in a detail not shown here. Identical values can stand only once.

What was measured:
TGR [1] = target: T1, TGR (Schistosoma mansoni, UniProt Q962Y6); test: Reversibility by jump dilution; type: biochemical
T1 construct: made in house
T1 sequence (Q962Y6 1-598): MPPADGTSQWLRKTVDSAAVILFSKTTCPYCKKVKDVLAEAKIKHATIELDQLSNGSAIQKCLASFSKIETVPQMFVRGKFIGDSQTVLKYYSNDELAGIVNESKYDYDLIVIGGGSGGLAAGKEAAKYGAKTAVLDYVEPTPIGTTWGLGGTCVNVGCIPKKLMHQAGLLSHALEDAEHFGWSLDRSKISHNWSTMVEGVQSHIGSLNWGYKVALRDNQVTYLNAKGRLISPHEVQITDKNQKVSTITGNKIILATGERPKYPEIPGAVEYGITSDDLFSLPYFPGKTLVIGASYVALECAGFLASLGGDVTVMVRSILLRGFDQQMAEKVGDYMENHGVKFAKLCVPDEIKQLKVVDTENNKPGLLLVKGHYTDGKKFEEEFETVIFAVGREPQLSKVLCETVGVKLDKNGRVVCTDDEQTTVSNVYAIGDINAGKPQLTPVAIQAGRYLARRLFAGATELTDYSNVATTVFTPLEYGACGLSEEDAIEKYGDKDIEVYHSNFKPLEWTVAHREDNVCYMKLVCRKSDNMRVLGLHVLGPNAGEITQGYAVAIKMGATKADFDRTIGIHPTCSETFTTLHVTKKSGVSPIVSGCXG
Protocol: A reaction of 370 nM TGR, 100 µM NADPH, and 250 µM inhibitor was incubated for 15 min at room temperature. A 100x dilution of the reaction was made and the activity was determined immediately and after 60 min.

TGR [2] = target: T1, TGR; test: Time dependence of inhibition; type: biochemical; design: avg % inhib, 0.5 hr / avg % inhib, 1 hr / avg % inhib, 2 hr / avg % inhib, 3 hr / avg % inhib, 6 hr / avg % inhib, 24 hr: tested at 50 µM; conditions: panel d Time Dependence
Protocol: TGR was incubated at room temperature (up to 6 h) and at 4 °C for 6 to 24 h with 50 µM inhibitor and 100 µM NADPH for the indicated times. Then DTNB (3 mM) and NADPH (100 µM) were added, and the reaction was monitored at A412 for 5 min. The assay was done in triplicate.

TGR [3] = target: T2, TGR (Schistosoma mansoni, UniProt Q962Y6, X597U); test: NADPH consumption (oxidase activity); type: biochemical, S. mansoni; conditions: replicates
T2 construct: made in house
Procedure, shortened: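 Enzyme (500 nM) preincubated 30 min with compound (TRi-1, Stattic 50 µM; AF 20 µM) and 100 µM NADPH, desalted, then mixed with 100 µM NADPH; NADPH consumption read at 340 nm. Other compounds (50 µM) run without desalting, preincubation 30 min or 2 h.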

S. japonicum adult worms = test: Schistosomicidal activity ex vivo, S. japonicum adult worms; type: cell-based; conditions: 48 h exposure
Protocol: Three-week old, female Swiss-Webster mice obtained from the Charles River were housed in the Comparative Research Center of Rush University Medical Center. Mice were infected by percutaneous tail exposure to about 200 S. mansoni or 50 S. japonicum cercaria for adult worms and about 1000 cercaria for juvenile S. mansoni worms through natural transdermal penetration of the cercariae for 1 h[81].
DMSO formulated compounds were diluted with phenol red free M199 medium or RPMI medium for NTS or juvenile and adult worms, respectively, at <1% DMSO final concentrations. NTS, juvenile and adult worms from overnight cultures were tested against compounds in triplicate. Controls were treated with DMSO alone or 5 µM AF as a positive control in appropriate medium. […] Schistosome viabilities in the presence of the compounds were assessed using this formula: % Viability = Averages of Test / Averages of DMSO Control x 100.

[4] = D60: diluted 1:100, activity determined after 60 min, list for plotting
[5] = before dilution (-15), list for plotting

Structure (SMILES): Cc1oc(C2CCCCC2)nc1CN[C@@H]1C[C@@H]2C[C@H]([C@H]1C)C2(C)C [Compound 4]
- % Activity (ID list), D0 (TGR [1]; D0: diluted 1:100, activity determined immediately, list for plotting): 102.5% and 102.9% and 117.3%
- % Activity (ID list), D60 (TGR [1]; [4]): 106.3%
- % Inhibition (ID list), D60 (TGR [1]; [4]): -15.2% and -8.7% and -6.3%
- Inhibitor (rate), 0 min (TGR [1]; [0, D0]: 15 min preincubation inhibitor + TGR + NADPH, diluted 1:100, then activity determined immediately, raw rate): 0.04729 and 0.04838 and 0.05087
- % Activity, 0 min (TGR [1]; [0, D0]: 15 min preincubation inhibitor + TGR + NADPH, diluted 1:100, then activity determined immediately, relative to DMSO): 102.47% and 102.936% and 117.347%
- Inhibitor (rate), 60 min (TGR [1]; [60, D60]: 15 min preincubation inhibitor + TGR + NADPH, diluted 1:100, then activity determined after 60 min, raw rate): 0.04596 and 0.04643 and 0.04838
- % Activity, 60 min (TGR [1]; [60, D60]: 15 min preincubation inhibitor + TGR + NADPH, diluted 1:100, then activity determined after 60 min, relative to DMSO): 106.315% and 104.173% and 103.664%
- Inhibitor (rate), -15 (TGR [1]; [-15]: 15 min preincubation inhibitor + TGR + NADPH, then activity determined, raw rate, replicates): 0.01214 and 0.0123 and 0.01219
- % Activity, -15 (TGR [1]; [-15]: 15 min preincubation inhibitor + TGR + NADPH, then activity determined, relative to DMSO, replicates): 35.2293% and 34.0532% and 34.3671%
- % Activity (ID list) (TGR [1]; [5]): 35.2% and 34.1% and 34.4%
- % Inhibition (ID list) (TGR [1]; [5]): 64.8% and 65.9% and 65.6%
- rate, 0.5 hr (TGR [2]; 0.5 hr): 0.06468 and 0.06599 and 0.06659
- avg % inhib, 0.5 hr (TGR [2]; 0.5 hr, average): 18.4758%
- % inhib, 0.5 hr (TGR [2]; 0.5 hr, replicates): 18.6722% and 19.1992% and 17.556%
- rate, 1 hr (TGR [2]; 1 hr): 0.05061 and 0.05195 and 0.05284
- avg % inhib, 1 hr (TGR [2]; 1 hr, average): 30.1534%
- % inhib, 1 hr (TGR [2]; 1 hr, replicates): 31.2738% and 29.387% and 29.7994%
- rate, 2 hr (TGR [2]; 2 hr): 0.03578 and 0.03672 and 0.03844
- avg % inhib, 2 hr (TGR [2]; 2 hr, average): 45.3087%
- % inhib, 2 hr (TGR [2]; 2 hr, replicates): 46.082% and 46.1584% and 43.6859%
- rate, 3 hr (TGR [2]; 3 hr): 0.02569 and 0.02601 and 0.02662
- avg % inhib, 3 hr (TGR [2]; 3 hr, average): 55.4006%
- % inhib, 3 hr (TGR [2]; 3 hr, replicates): 55.9121% and 55.5156% and 54.774%
- rate, 6 hr (TGR [2]; 6 hr): 0.01404 and 0.01371
- avg % inhib, 6 hr (TGR [2]; 6 hr, average): 70.958%
- % inhib, 6 hr (TGR [2]; 6 hr, replicates): 70.2542% and 71.6618%
- rate, 24 hr (TGR [2]; 24 hr): 0.004212 and 0.004652 and 0.005413
- avg % inhib, 24 hr (TGR [2]; 24 hr, average): 87.319%
- % inhib, 24 hr (TGR [2]; 24 hr, replicates): 88.741% and 87.5248% and 85.6913%
- NADPH consumption (rate/ΔOD340) (TGR [3]): -0.0007477 and -0.0007112 and -0.0007089
- LD50 ex vivo S. japonicum adult (S. japonicum adult worms): 27.1 ± 1.75 µM
